# Active and inactive are the calls of the source. The rule behind the calls is not given here.
# Columns and labels:
# [1] = Stability in human liver microsomes assessed as parent compound remaining after 10 mins; format: ADME, microsome; settings: read-out: Stability
# [2] = Stability in rat liver microsomes assessed as parent compound remaining after 10 mins; format: ADME, microsome; settings: read-out: Stability
# [3] = molecular target: Free fatty acid receptor 4 (Homo sapiens, UniProt Q5NUL3); test: Agonist activity at human GPR120 short splice variant expressed in HEK293 cells assessed as increase in intracellular calcium flux by Fluo-4 NW dye based FLIPR assay; format: functional, cell-based
# [4] = Stability in mouse liver microsomes assessed as parent compound remaining after 10 mins; format: ADME, microsome; settings: read-out: Stability
# [5] = molecular target: T1, Free fatty acid receptor 4 (Homo sapiens, UniProt Q5NUL3); test: Agonist activity at human GPR120 expressed in CHO-K1 cells assessed as […] by DiscoveRx PathHunter beta-arrestin assay; format: functional, cell-based
# T1 sequence (Q5NUL3 whole entry): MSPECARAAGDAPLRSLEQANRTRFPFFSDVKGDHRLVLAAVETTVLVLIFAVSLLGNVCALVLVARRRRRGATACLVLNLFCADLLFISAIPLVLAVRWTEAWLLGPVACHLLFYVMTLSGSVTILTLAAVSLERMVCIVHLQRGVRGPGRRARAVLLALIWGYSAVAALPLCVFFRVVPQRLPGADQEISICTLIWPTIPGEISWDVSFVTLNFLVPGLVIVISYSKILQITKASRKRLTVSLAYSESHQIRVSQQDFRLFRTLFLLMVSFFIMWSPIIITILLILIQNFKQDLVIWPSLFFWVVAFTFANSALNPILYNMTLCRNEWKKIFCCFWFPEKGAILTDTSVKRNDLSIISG
# [6] = Protein binding in mouse plasma; format: ADME, cell-free; settings: read-out: PPB (converted)
# [7] = Half life in C57/black 6J mouse at 20 mg/kg dosed as oral gavage by LC-MS/MS method; format: ADME, organism-based; settings: in vivo
# [8] = Volume of distribution at steady state in C57/black 6J mouse at 5 mg/kg, iv by LC-MS/MS method; format: ADME, organism-based; settings: in vivo, read-out: Vdss
# [9] = system: Mus musculus; test: (§1) Oral bioavailability in C57/black 6J mouse at 20 mg/kg by LC-MS/MS method; format: ADME, organism-based; settings: in vivo
# [10] = Protein binding in human plasma; format: ADME, cell-free; settings: read-out: PPB (converted)
# [11] = Protein binding in rat plasma; format: ADME, cell-free; settings: read-out: PPB (converted)
# [12] = system: Mus musculus; test: Antidiabetic activity in C57bl/6J mouse assessed as reduction in blood glucose delta AUC level at 10 mg/kg, po dosed 30 mins before glucose challenge and measured 90 mins post glucose injection by intraperitoneal glucose tolerance test; format: functional; design: scale not given: the % may be the effect or the level left
# [13] = system: Mus musculus; test: Antidiabetic activity in C57bl/6J mouse assessed as reduction in blood glucose delta AUC level at 1 mg/kg, po dosed 30 mins before glucose challenge and measured 90 mins post glucose injection by intraperitoneal glucose tolerance test; format: functional; design: scale not given: the % may be the effect or the level left
# [14] = system: Mus musculus; test: Antidiabetic activity in C57bl/6J mouse assessed as reduction in blood glucose delta AUC level at 3 mg/kg, po dosed 30 mins before glucose challenge and measured 90 mins post glucose injection by intraperitoneal glucose tolerance test; format: functional; design: scale not given: the % may be the effect or the level left
# [15] = as §1; format: ADME, organism-based; settings: C57/black 6J, in vivo
# [16] = system: Mus musculus; test: Antidiabetic activity in C57bl/6J mouse assessed as reduction in blood glucose level at 10 mg/kg, po dosed 30 mins before glucose challenge by intraperitoneal glucose tolerance test; format: functional, organism-based
# [17] = Clearance in C57/black 6J mouse at 5 mg/kg, iv by LC-MS/MS method; format: ADME, organism-based; settings: in vivo
# [18] = Cmax in C57/black 6J mouse at 20 mg/kg dosed as oral gavage by LC-MS/MS method; format: ADME, organism-based; design: dose 20 mg/kg, route oral; settings: in vivo
# [19] = AUClast in C57/black 6J mouse at 20 mg/kg dosed as oral gavage by LC-MS/MS method; format: ADME, organism-based; design: dose 20 mg/kg, route oral, time 0 - last; settings: in vivo
# [20] = system: Mus musculus; test: Antidiabetic activity in C57bl/6J mouse assessed as reduction in blood glucose level at 1 to 10 mg/kg, po dosed 30 mins before glucose challenge by intraperitoneal glucose tolerance test; format: functional, organism-based
# [21] = system: Mus musculus; test: Antidiabetic activity in C57bl/6J mouse assessed as reduction in blood glucose delta AUC level at 1 to 10 mg/kg, po dosed 30 mins before glucose challenge by intraperitoneal glucose tolerance test; format: functional, organism-based
smiles,measurement,setting,value
Cc1c(CCC(=O)O)ccc(OCc2c(-c3ccc(Cl)cc3)noc2C(F)(F)F)c1C,remaining at 10 min,[1],80.9%
same,remaining at 10 min,[2],68%
same,EC50,[3],680 nM
same,remaining at 10 min,[4],91.2%
same,EC50,[5],160 nM
O=C(O)CCc1ccc(OCc2c(-c3ccc(Cl)cc3)noc2C(F)(F)F)c(F)c1F,remaining at 10 min,[1],99.6%
same,remaining at 10 min,[2],106%
same,EC50,[3],670 nM
same,remaining at 10 min,[4],109%
same,EC50,[5],140 nM
Cc1c(CCC(=O)O)ccc(OCc2nccn2-c2ccc(Cl)cc2)c1C,EC50,[3],> 5000 nM
CCc1ccc(-c2sncc2COc2ccc(CCC(=O)O)c(C)c2C)cc1,EC50,[3],190 nM
CCCc1onc(-c2ccc(Cl)cc2)c1COc1ccc(CCC(=O)O)c(C)c1C,remaining at 10 min,[1],79.3%
same,remaining at 10 min,[2],38.4%
same,EC50,[3],1060 nM
same,remaining at 10 min,[4],48.3%
same,EC50,[5],130 nM
O=C(O)CCc1cc(F)c(OCc2c(-c3ccc(F)cc3)noc2C(F)(F)F)c(F)c1,remaining at 10 min,[1],103%
same,remaining at 10 min,[2],66.2%
same,EC50,[3],150 nM
same,remaining at 10 min,[4],119%
same,EC50,[5],230 nM
Cc1ccc(-c2noc(C(F)(F)F)c2COc2c(F)cc(CC(C)C(=O)O)cc2F)cc1 (centres undefined),remaining at 10 min,[1],93%
same,remaining at 10 min,[2],54.3%
same,EC50,[3],110 nM
same,remaining at 10 min,[4],86.3%
same,EC50,[5],160 nM
O=C(O)CCc1cc(F)c(OCc2c(-c3ccc(C4CC4)cc3)noc2C(F)(F)F)c(F)c1,EC50,[3],170 nM
CCc1ccc(-c2ccsc2COc2ccc(CCC(=O)O)c(C)c2C)cc1,EC50,[3],160 nM
same,EC50,[5],900 nM
CCc1ccc(-c2cscc2COc2ccc(CCC(=O)O)c(C)c2C)cc1,EC50,[3],142 nM
O=C(O)CCc1cc(F)c(OCc2c(-c3ccccc3)noc2C(F)(F)F)c(F)c1,remaining at 10 min,[1],95.6%
same,fraction unbound,[6],0.0047
same,half-life,[7],2.58 h
same,Vd,[8],0.336 L/kg
same,F,[9],49.5%
same,remaining at 10 min,[2],110%
same,EC50,[3],170 nM
same,fraction unbound,[10],0.0017
same,remaining at 10 min,[4],93%
same,fraction unbound,[11],0.0122
same,EC50,[5],69 nM
Cc1c(CCC(=O)O)ccc(OCc2ccccc2-c2ccc(Cl)cc2)c1C,EC50,[3],220 nM
O=C(O)CCc1cc(F)c(OCc2c(-c3ccc(Cl)cc3)noc2C(F)(F)F)c(F)c1,Activity,[12],-56%
same,Activity,[13],20%
same,remaining at 10 min,[1],113%
same,fraction unbound,[6],0.0014
same,Activity,[14],23%
same,half-life,[7],2.07 h
same,Vd,[8],1.26 L/kg
same,bioavailability,[15],93%
same,remaining at 10 min,[2],98.9%
same,EC50,[3],71 nM
same,Activity,[16],Active
same,clearance,[17],7.18 mL/min/kg
same,Cmax,[18],12700 ng/mL
same,fraction unbound,[10],0.0007
same,AUC(0-t),[19],43200 ng·h/mL
same,remaining at 10 min,[4],105%
same,fraction unbound,[11],0.0019
same,EC50,[5],160 nM
Cc1c(CCC(=O)O)ccc(OCc2nnnn2-c2ccc(Cl)cc2)c1C,EC50,[3],> 5000 nM
Cc1onc(-c2ccc(Cl)cc2)c1COc1ccc(CCC(=O)O)c(C)c1C,EC50,[3],270 nM
same,EC50,[5],760 nM
Cc1ccc(-c2noc(C(F)(F)F)c2COc2c(F)cc(CCC(=O)O)cc2F)cc1,remaining at 10 min,[1],64.4%
same,remaining at 10 min,[2],37.9%
same,EC50,[3],120 nM
same,remaining at 10 min,[4],84.5%
same,EC50,[5],180 nM
O=C(O)CCc1cc(F)c(OCc2c(-c3ccc(F)cc3Cl)noc2C(F)(F)F)c(F)c1,remaining at 10 min,[1],108%
same,remaining at 10 min,[2],92%
same,EC50,[3],71 nM
same,remaining at 10 min,[4],99.3%
same,EC50,[5],290 nM
Cc1c(CCC(=O)O)ccc(OCc2scnc2-c2ccc(Cl)cc2)c1C,EC50,[3],81 nM
CCc1onc(-c2ccc(Cl)cc2)c1COc1ccc(CCC(=O)O)c(C)c1C,remaining at 10 min,[1],66.3%
same,remaining at 10 min,[2],45.6%
same,EC50,[3],740 nM
same,remaining at 10 min,[4],50.2%
same,EC50,[5],400 nM
Cc1c(CCC(=O)O)ccc(OCc2cnnn2-c2ccc(Cl)cc2)c1C,EC50,[3],> 5000 nM
Cc1c(CCC(=O)O)ccc(OCc2ncoc2-c2ccc(Cl)cc2)c1C,EC50,[3],1750 nM
Cc1c(CCC(=O)O)ccc(OCc2c(-c3ccc(Cl)cc3)noc2-c2ccccc2)c1C,EC50,[3],2830 nM
CCc1ccc(-n2cccc2COc2ccc(CCC(=O)O)c(C)c2C)cc1,EC50,[3],100 nM
same,EC50,[5],750 nM
O=C(O)CCc1cc(F)c(OCc2c(-c3ccc(C(F)(F)F)cc3)noc2C(F)(F)F)c(F)c1,EC50,[3],340 nM
same,EC50,[5],190 nM
O=C(O)CCc1cc(F)c(OCc2c(-c3ccc(Br)cc3)noc2C(F)(F)F)c(F)c1,remaining at 10 min,[1],105%
same,remaining at 10 min,[2],72.3%
same,EC50,[3],120 nM
same,remaining at 10 min,[4],94.1%
Cc1c(CCC(=O)O)ccc(OCc2c(-c3ccc(Cl)cc3)noc2C2CC2)c1C,EC50,[3],1070 nM
same,EC50,[5],1090 nM
O=C(O)CCc1ccc(OCc2c(-c3ccc(Cl)cc3)noc2C(F)(F)F)cc1C(F)(F)F,EC50,[3],1450 nM
O=C(O)CCc1ccc(OCc2c(-c3ccccc3)noc2C(F)(F)F)cc1,EC50,[3],150 nM
COc1ccc(-c2noc(C(F)(F)F)c2COc2c(F)cc(CCC(=O)O)cc2F)cc1,EC50,[3],1130 nM
Cc1cc(OCc2c(-c3ccc(Cl)cc3)noc2C(F)(F)F)c(F)cc1CCC(=O)O,EC50,[3],410 nM
CCc1ccc(-c2noc(C(F)(F)F)c2COc2c(F)cc(CCC(=O)O)cc2F)cc1,Activity,[12],-54%
same,Activity,[13],30%
same,fraction unbound,[6],0.0008
same,Activity,[14],-35%
same,half-life,[7],1.03 h
same,Vd,[8],0.898 L/kg
same,bioavailability,[15],78.7%
same,EC50,[3],57 nM
same,clearance,[17],27.1 mL/min/kg
same,Cmax,[18],7670 ng/mL
same,fraction unbound,[10],0.0006
same,AUC(0-t),[19],9660 ng·h/mL
same,Activity,[20],Dose-dependent effect
same,fraction unbound,[11],0.0011
same,EC50,[5],60 nM
same,Activity,[21],Dose-dependent effect
Cc1noc(-c2ccc(Cl)cc2)c1COc1ccc(CCC(=O)O)c(C)c1C,EC50,[3],350 nM
same,EC50,[5],810 nM
Cc1c(CCC(=O)O)ccc(OCc2csnc2-c2ccc(Cl)cc2)c1C,EC50,[3],217 nM
Cc1c(CCC(=O)O)ccc(OCc2conc2-c2ccc(Cl)cc2)c1C,EC50,[3],1440 nM
same,EC50,[5],2760 nM
Cc1c(CCC(=O)O)ccc(OCc2cccn2-c2ccc(Cl)cc2)c1C,EC50,[3],145 nM
same,EC50,[5],930 nM
CCc1ccc(-n2nccc2COc2ccc(CCC(=O)O)c(C)c2C)cc1,EC50,[3],520 nM
same,EC50,[5],1150 nM
Cc1c(CCC(=O)O)ccc(OCc2ccnn2-c2ccc(Cl)cc2)c1C,EC50,[3],610 nM
same,EC50,[5],2030 nM
